Earlier results in patent US20070015728A1, “Metered-dose and safety and compliance packaging for systemic anticancer therapy” (priority 2005, published 2007).

How the values were obtained:
[1] = target: T1, OPRT (Homo sapiens, UniProt P11172); details: neutral pH
T1 sequence (P11172 1-480): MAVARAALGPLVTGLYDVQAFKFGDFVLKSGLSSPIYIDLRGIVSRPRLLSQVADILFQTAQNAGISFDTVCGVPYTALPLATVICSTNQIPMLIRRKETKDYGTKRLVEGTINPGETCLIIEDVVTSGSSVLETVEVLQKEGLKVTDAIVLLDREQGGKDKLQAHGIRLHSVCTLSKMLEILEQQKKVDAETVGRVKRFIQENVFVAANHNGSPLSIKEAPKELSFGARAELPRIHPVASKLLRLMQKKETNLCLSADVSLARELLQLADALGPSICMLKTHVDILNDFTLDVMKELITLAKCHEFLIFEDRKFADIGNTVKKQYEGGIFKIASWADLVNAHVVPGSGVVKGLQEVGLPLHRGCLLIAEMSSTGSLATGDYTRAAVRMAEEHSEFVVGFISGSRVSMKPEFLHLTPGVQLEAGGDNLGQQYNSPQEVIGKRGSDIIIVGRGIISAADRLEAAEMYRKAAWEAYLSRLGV

[2] = test system: hand-foot syndrome (HFS); details: treatment with capecitabine at the FDA-approved dose; XELODA product insert

Structure (SMILES)	Km for OPRT, fold lower than 5-FU [1] [fold]	grade 3 incidence of HFS [2]	incidence of HFS irrespective of grade [2]
O=C(O)c1cc(=O)[nH]c(=O)[nH]1 [Orotate]	~50	–	–
CCCCCOC(=O)Nc1nc(=O)n([C@@H]2O[C@H](C)[C@@H](O)[C@H]2O)cc1F [Xeloda, Capecitabine]	–	11-17%	54%-67%
